Experimental data taken from patent US20220267365A1, “NOVEL PHOSPHATE ESTER COMPOUND HAVING PYRROLOPYRIMIDINE SKELETON OR PHARMACEUTICALLY ACCEPTABLE SALT THEREOF” (TAIHO PHARMACEUTICAL CO., LTD., priority 2019, published 2022).
Structures can show the parent of a compound that is named as a salt.

Experiments:
[1] = Test Example 2: presence of prodrug in mouse and absorbency, caudal vein administration, plasma AUC; type: in vivo, mice (Balb/cA, male); conditions: for AUC(0-t): male, Balb/cA, caudal vein, physiological saline, mouse plasma, unchanged prodrug; for presence of prodrug in mouse (conversion into active compound): caudal vein administration of disodium salts
Description: The dosage amounts of a disodium salt of the compound of Example 1, a disodium salt of the compound of Example 2, a disodium salt of the compound of Example 3, a disodium salt of the compound of Example 4 and a disodium salt of the compound of Example 5 were set to be 26 mg/5 mL/kg, 12 mg/5 mL/kg, 12 mg/5 mL/kg, 12 mg/5 mL/kg, and 11 mg/5 mL/kg, respectively. Solutions for administration were prepared by dissolving the compounds in physiological saline so as to satisfy the above dosage amounts, respectively. Note that solutions for administration of disodium salts of the compounds of Examples 1 to 4 were prepared by adding 2 molar equivalents of sodium hydroxide.
Mice (Balb/cA, male) not fasted were each immobilized on a specific fixed table, sterilized with ethanol for disinfection. Each of the solutions prepared above was administered through the caudal vein by use of a syringe and a needle.
Blood was taken from the facial vein, 0.25, 0.5, 1, 2, 4 and 6 hours after administration by use of a specific needle (animal lancet) and a heparin-coated hematocrit tube.
The blood sampled were immediately centrifuged (13000 rpm, 2 minutes, 4° C.) to prepare the plasma samples. After proteins were removed from the plasma samples, the concentrations of the test compound in the plasma samples were measured by LC/MS/MS.
The value of AUC was calculated using analysis software such as Phoenix (registered trademark), WinNonlin (registered trademark).
The AUC (AUC 0-6 hr) values obtained in the time period of 0 to 6 hours after administration of sodium salts of the compounds of Example 1 to 4 are shown in Table 4; and the AUC (AUC 0-6 hr) values obtained in the time period of 0 to 6 hours after administration of a sodium salt of the compound of Example 5 are shown in Table 5. In Table 4 and Table 5, “Comparative Example 1”, “Comparative Example 2” and “Comparative Example 3” represent the “compound (Br form) of Comparative Example 1”, the “compound (I form) of Comparative Example 2”, and the “compound (Cl form) of Comparative Example 3”, respectively.

DU145 = assay: Test Example 3 growth suppression activity, CellTiter-Glo; type: cell-based; conditions: DU-145, 72 h; DU145, Human prostate cancer, 3 days
Description: Human tumor cell lines different in type were suspended in mediums, seeded in individual wells of a multi-well plate and cultured. On the day after initiation of culture, serially diluted solutions of a compound were added. Culture was carried out for further 3 days. Cells were counted by a CellTiter-Glo (manufactured by Promega KK) in accordance with the protocol recommended by Promega KK. Cell viability was calculated in accordance with the equation shown below and the concentration (IC50 (μM)) of the compound at which 50% of cell growth is inhibited was obtained.
(§1) Cell viability (%)=(T/C)×100
(§2) T: Intensity of light emitted from a well containing a compound
(§3) C: Intensity of light emitted from a well containing no compound

H358 = assay: Test Example 4 growth suppression activity, CellTiter-Glo; type: cell-based; conditions: NCI-H358, 72 h; H358, Human lung cancer, 3 days
Description: (§4) Human tumor cell lines different in type were suspended in mediums, seeded in individual wells of a multi-well plate and cultured. On the day after initiation of culture, serially diluted solutions of a compound were added. Culture was carried out for further 3 days. Cells were counted by a CellTiter-Glo (manufactured by Promega KK) in accordance with the protocol recommended by Promega KK. Cell viability was calculated in accordance with the equation shown below and the concentration (IC50 (nM)) of the compound at which 50% of cell growth is inhibited was obtained.
as §1, §2, §3

A549 = assay: as above; type: cell-based; conditions: 72 h; A549, Human lung cancer, 3 days
Description: as §4, §1, §2, §3

H2122 = assay: as above; type: cell-based; conditions: NCI-H2122, 72 h; H2122, Human lung cancer, 3 days
Description: as §4, §1, §2, §3

H1650 = assay: as above; type: cell-based; conditions: NCI-H1650, 72 h; H1650, Human lung cancer, 3 days
Description: as §4, §1, §2, §3

[2] = Test Example 1: presence of prodrug in mouse and absorbency, oral administration, plasma AUC; type: in vivo, mice (Balb/cA, male); conditions: for presence of prodrug in mouse (conversion into active compound): oral administration
Description: The dosage amounts of the compound of Comparative Example 1, a triethylamine salt of the compound of Example 1, the compound of Comparative Example 2 and the compound of Example 2 were set to be 50 mg/10 mL/kg, 62 mg/10 mL/kg (50 mg/10 mL/kg in terms of free compound), 3 mg/10 mL/kg, and 3.6 mg/10 mL/kg, respectively. Solutions for administration were prepared with a 0.5% aqueous solution of HPMC so as to satisfy the above dosage amounts. Note that a solution for administration of a triethylamine salt of the compound of Example 1 was prepared by adding 1 molar equivalent of triethylamine.
The dosage amounts of the compound of Comparative Example 3 and the compound of Example 5 were set to be 3 mg/10 mL/kg and 3.8 mg/10 mL/kg, respectively. Solutions thereof for administration were prepared with a 0.5% aqueous solution of HPMC so as to satisfy the above dosage amounts.
Note that, the “mg/10 mL/kg” means as follows: for example “50 mg/10 mL/kg” means that 50 mg of a test compound per body-weight (1 kg) of a mouse was dispersed or dissolved in a solution (10 mL) for administering a compound. The same applies hereinafter.
The solutions for administration prepared above were orally administered to mice (Balb/cA, male) not fasted each by use of an oral administration sonde.
The mice were anesthetized with isoflurane 0.5, 1, 2, 4 and 6 hours after administration and blood was taken from the facial vein by use of a specific needle (animal lancet) and a heparin-coated hematocrit tube.
The blood sampled was immediately centrifuged (13000 rpm, 2 minutes, 4° C.) to prepare the plasma samples. After proteins were removed from the plasma samples, the concentrations of the test compound in the plasma samples were measured by LC/MS/MS.
The value of “area under the curve” (AUC) of drug concentration in blood versus time was calculated using analysis software such as Phoenix (registered trademark) WinNonlin (registered trademark).
More specifically, the results of the compounds of Comparative Examples 1 and 2 and triethylamine salt of Example 1, and the compound of Example 2 are shown in Table 2; whereas, the results of the compounds of Comparative Example 3 and Example 5 are shown in Table 3. In Table 2 and Table 3, “Comparative Example 1”, “Comparative Example 2”, and “Comparative Example 3” represent the “compound (Br form) of Comparative Example 1”, the “compound (I form) of Comparative Example 2” and the “compound (Cl form) of Comparative Example 3”, respectively.

[3] = test system: human brain tumor cell line (U-87 MG); assay: Test Example 6: antitumor effect and toxicity in mouse, subcutaneous U-87 MG transplant; type: in vivo, BALB/cA Jcl-nu/nu mice
Description: The day of grouping mice was determined Day 0.
TV (mm^3)=(major axis×minor axis^2)/2
RTV=(TV on evaluation date)/(TV on Day 0)
IR (%)=(1−(RTV of administration group on evaluation date)/(RTV of control group on evaluation date))×100

[4] = test system: human hematopoietic organ tumor cell line (MV-4-11); assay: Test Example 7: antitumor effect and toxicity in mouse, subcutaneous MV-4-11 transplant
Description: A human hematopoietic organ tumor cell line (MV-4-11) was subcutaneously transplanted in the right chest of each of BALB/cA Jcl-nu/nu mice. After tumor transplantation, the major axes (mm) and minor axes (mm) of the tumors were measured and tumor volumes (TV) were calculated. The mice were assigned to individual groups such that the average TVs of the groups became equal. The day of grouping mice was determined Day 0.
Thereafter, administration was continued as long as a weight loss was acceptable and then evaluated.
The tumor volumes (TV) and body weights (BW) of individual groups were evaluated. As the indexes of antitumor effect and toxicity, the relative tumor volume (RTV) to that of Day 0 and a body weight change (BWC) relative to that of Day 0 were obtained, respectively, in accordance with the following equations and plotted on a chart.
BWC (%)=(BW on evaluation date−BW on Day 0)/(BW on Day 0)×100
T/C (%)=(Number of blood cell component in administration group/Number of blood cell component in control group)×100

[5] = iv, 12 mg/kg, read-out: AUC 0-6 hr in terms of the administered Example compound

## Nc1ncnc2c1c(I)cn2[C@@H]1O[C@H](COP(O)(O)=S)[C@@H](O)[C@@H]1F [Disodium salt of Example 3, O-(((2R,3R,4S,5R)-5-(4-amino-5-iodo-7H-pyrrolo[2,3-d]pyrimidin-7-yl)-4-fluoro-3-hydroxytetrahydrofuran-2-yl)methyl) O,O-dihydrogen phosphorothioate]
[1]; [5]
  AUC(0-t): 0.18 µM·h

## Nc1ncnc2c1c(Br)cn2[C@@H]1O[C@H](CO)[C@@H](O)[C@@H]1F [Comparative Example 1, (2R,3R,4S,5R)-5-(4-amino-5-bromo-7H-pyrrolo[2,3-d]pyrimidin-7-yl)-4-fluoro-2-(hydroxymethyl) tetrahydrofuran-3-ol]
DU145
  IC50: 90 nM
H358
  IC50: 69 nM
A549
  IC50: 24 nM
H2122
  IC50: 17 nM
H1650
  IC50: 11 nM
[2]; male, Balb/cA, oral, 50 mg/kg (0.14 mmol/kg), 0.5% HPMC, mouse plasma, administered compound, read-out: AUC 0-6 hr
  AUC(0-t): 20.2 µM·h

## Nc1ncnc2c1c(Cl)cn2[C@@H]1O[C@H](COP(=O)(O)O)[C@@H](O)[C@@H]1F [Example 5, ((2R,3R,4S,5R)-5-(4-amino-5-chloro-7H-pyrrolo[2,3-d]pyrimidin-7-yl)-4-fluoro-3-hydroxytetrahydrofuran-2-yl)methyl dihydrogen phosphate]
[1]
  presence of prodrug in mouse (conversion into active compound): prodrug of the compound (Cl form) of Comparative Example
[2]
  presence of prodrug in mouse (conversion into active compound): prodrug of the compound (Cl form) of Comparative Example 3

## Nc1ncnc2c1c(I)cn2[C@@H]1O[C@H](COP(=O)(O)O)[C@@H](O)[C@@H]1F [Disodium salt of Example 2, ((2R,3R,4S,5R)-5-(4-amino-5-iodo-7H-pyrrolo[2,3-d]pyrimidin-7-yl)-4-fluoro-3-hydroxytetrahydrofuran-2-yl)methyl dihydrogen phosphate]
[1]; [5]
  AUC(0-t): 0.64 µM·h

## Nc1ncnc2c1c(I)cn2[C@@H]1O[C@H](CO)C(OP(=O)(O)O)C1F (stereo partly drawn) [Disodium salt of Example 4, (2R,3R,4S,5R)-5-(4-amino-5-iodo-7H-pyrrolo[2,3-d]pyrimidin-7-yl)-4-fluoro-2-(hydroxymethyl) tetrahydrofuran-3-yl dihydrogen phosphate]
[1]; [5]
  AUC(0-t): 9.35 µM·h

## Nc1ncnc2c1c(Br)cn2[C@@H]1O[C@H](COP(=O)(O)O)[C@@H](O)[C@@H]1F [Disodium salt of Example 1, ((2R,3R,4S,5R)-5-(4-amino-5-bromo-7H-pyrrolo[2,3-d]pyrimidin-7-yl)-4-fluoro-3-hydroxytetrahydrofuran-2-yl)methyl dihydrogen phosphate]
[1]; iv, 26 mg/kg, read-out: AUC 0-6 hr in terms of Example 1
  AUC(0-t): 0.15 µM·h

## Nc1ncnc2c1c(Cl)cn2[C@@H]1O[C@H](COP(=O)(O)O)[C@@H](O)[C@@H]1F [Disodium salt of Example 5, ((2R,3R,4S,5R)-5-(4-amino-5-chloro-7H-pyrrolo[2,3-d]pyrimidin-7-yl)-4-fluoro-3-hydroxytetrahydrofuran-2-yl)methyl dihydrogen phosphate]
[1]; intravenous, 11 mg/kg, read-out: AUC 0-6 hr in terms of Example 5
  AUC(0-t): 0.08 µM·h

## Nc1ncnc2c1c(I)cn2[C@@H]1O[C@H](COP(=O)(O)O)[C@@H](O)[C@@H]1F [Example 2, ((2R,3R,4S,5R)-5-(4-amino-5-iodo-7H-pyrrolo[2,3-d]pyrimidin-7-yl)-4-fluoro-3-hydroxytetrahydrofuran-2-yl)methyl dihydrogen phosphate]
[3]; administration continued until weight loss 20% or more, Day 13 vs Day 6
  continuation of administration compared to Comparative Example 2-compound administration group: continued longer
[3]; oral 14.4 mg/kg/day every day
  effect on body weight (BWC): mild
[3]; oral 14.4 mg/kg/day every day, final day of evaluation Day 13, compared with Comparative Example 2 12 mg/kg/day, Day 6
  antitumor effect (IR based on RTV): high antitumor effect
[2]
  presence of prodrug in mouse (conversion into active compound): prodrug of the compound (I form) of Comparative Example 2
[4]; Day 15 vs Day 11 (Comparative Example 2 oral 12 mg/kg/day)
  continuation of administration compared to Comparative Example 2-compound administration group: continued longer
[4]; osmotic pump 20 mg/kg/day for 14 days
  effect on body weight (BWC): low
[4]; osmotic pump 20 mg/kg/day for 14 days, Day 15
  hematological toxicity (lymphocytes, monocytes T/C): low
[4]; osmotic pump 20 mg/kg/day for 14 days, final day Day 15
  antitumor effect (RTV): remarkable antitumor effect (tumor regression was confirmed)

## Nc1ncnc2c1c(Br)cn2[C@@H]1O[C@H](COP(=O)(O)O)[C@@H](O)[C@@H]1F [Example 1, ((2R,3R,4S,5R)-5-(4-amino-5-bromo-7H-pyrrolo[2,3-d]pyrimidin-7-yl)-4-fluoro-3-hydroxytetrahydrofuran-2-yl)methyl dihydrogen phosphate]
[1]
  presence of prodrug in mouse (conversion into active compound): prodrug of the compound (Br form) of Comparative Example 1
[2]
  presence of prodrug in mouse (conversion into active compound): prodrug of the compound (Br form) of Comparative Example 1
